Molecular target: T1, F508del (Homo sapiens, UniProt P13569, DEL508-508)
T1 construct: expressed in transfected cells
Experiment: Protocol 1: membrane potential optical assay (FLIPR III, voltage sensing dye), identification of potentiator compounds
Assay type: cell-based
Conditions: Table 3, compounds of Table 1
Source text: Membrane Potential Optical Methods for Assaying F508del Modulation Properties of Compounds
The assay utilizes fluorescent voltage sensing dyes to measure changes in membrane potential using a fluorescent plate reader (e.g., FLIPR III, Molecular Devices, Inc.) as a readout for increase in functional F508del in NIH 3T3 cells. The driving force for the response is the creation of a chloride ion gradient in conjunction with channel activation by a single liquid addition step after the cells have previously been treated with compounds and subsequently loaded with a voltage sensing dye.
Identification of Potentiator Compounds
To identify potentiators of F508del, a double-addition HTS assay format was developed. This HTS assay utilizes fluorescent voltage sensing dyes to measure changes in membrane potential on the FLIPR III as a measurement for increase in gating (conductance) of F508del in temperature-corrected F508del NIH 3T3 cells. The driving force for the response is a Cl^− ion gradient in conjunction with channel activation with forskolin in a single liquid addition step using a fluorescent plate reader such as FLIPR III after the cells have previously been treated with potentiator compounds (or DMSO vehicle control) and subsequently loaded with a redistribution dye.
Bath Solution #1: (in mM) NaCl 160, KCl 4.5, CaCl2 2, MgCl2 1, HEPES 10, pH 7.4 with NaOH.
Chloride-free bath solution: Chloride salts in Bath Solution #1 (above) are substituted with gluconate salts.
NIH3T3 mouse fibroblasts stably expressing F508del are used for optical measurements of membrane potential. The cells are maintained at 37° C. in 5% CO2 and 90% humidity in Dulbecco's modified Eagle's medium supplemented with 2 mM glutamine, 10% fetal bovine serum, 1×NEAA, β-ME, 1× pen/strep, and 25 mM HEPES in 175 cm^2 culture flasks. For all optical assays, the cells were seeded at ˜20,000/well in 384-well matrigel-coated plates and cultured for 2 hrs at 37° C. before culturing at 27° C. for 24 hrs. for the potentiator assay. For the correction assays, the cells are cultured at 27° C. or 37° C. with and without compounds for 16-24 hours.

T1 sequence (P13569 with tags, fused parts or gaps DEL508-508): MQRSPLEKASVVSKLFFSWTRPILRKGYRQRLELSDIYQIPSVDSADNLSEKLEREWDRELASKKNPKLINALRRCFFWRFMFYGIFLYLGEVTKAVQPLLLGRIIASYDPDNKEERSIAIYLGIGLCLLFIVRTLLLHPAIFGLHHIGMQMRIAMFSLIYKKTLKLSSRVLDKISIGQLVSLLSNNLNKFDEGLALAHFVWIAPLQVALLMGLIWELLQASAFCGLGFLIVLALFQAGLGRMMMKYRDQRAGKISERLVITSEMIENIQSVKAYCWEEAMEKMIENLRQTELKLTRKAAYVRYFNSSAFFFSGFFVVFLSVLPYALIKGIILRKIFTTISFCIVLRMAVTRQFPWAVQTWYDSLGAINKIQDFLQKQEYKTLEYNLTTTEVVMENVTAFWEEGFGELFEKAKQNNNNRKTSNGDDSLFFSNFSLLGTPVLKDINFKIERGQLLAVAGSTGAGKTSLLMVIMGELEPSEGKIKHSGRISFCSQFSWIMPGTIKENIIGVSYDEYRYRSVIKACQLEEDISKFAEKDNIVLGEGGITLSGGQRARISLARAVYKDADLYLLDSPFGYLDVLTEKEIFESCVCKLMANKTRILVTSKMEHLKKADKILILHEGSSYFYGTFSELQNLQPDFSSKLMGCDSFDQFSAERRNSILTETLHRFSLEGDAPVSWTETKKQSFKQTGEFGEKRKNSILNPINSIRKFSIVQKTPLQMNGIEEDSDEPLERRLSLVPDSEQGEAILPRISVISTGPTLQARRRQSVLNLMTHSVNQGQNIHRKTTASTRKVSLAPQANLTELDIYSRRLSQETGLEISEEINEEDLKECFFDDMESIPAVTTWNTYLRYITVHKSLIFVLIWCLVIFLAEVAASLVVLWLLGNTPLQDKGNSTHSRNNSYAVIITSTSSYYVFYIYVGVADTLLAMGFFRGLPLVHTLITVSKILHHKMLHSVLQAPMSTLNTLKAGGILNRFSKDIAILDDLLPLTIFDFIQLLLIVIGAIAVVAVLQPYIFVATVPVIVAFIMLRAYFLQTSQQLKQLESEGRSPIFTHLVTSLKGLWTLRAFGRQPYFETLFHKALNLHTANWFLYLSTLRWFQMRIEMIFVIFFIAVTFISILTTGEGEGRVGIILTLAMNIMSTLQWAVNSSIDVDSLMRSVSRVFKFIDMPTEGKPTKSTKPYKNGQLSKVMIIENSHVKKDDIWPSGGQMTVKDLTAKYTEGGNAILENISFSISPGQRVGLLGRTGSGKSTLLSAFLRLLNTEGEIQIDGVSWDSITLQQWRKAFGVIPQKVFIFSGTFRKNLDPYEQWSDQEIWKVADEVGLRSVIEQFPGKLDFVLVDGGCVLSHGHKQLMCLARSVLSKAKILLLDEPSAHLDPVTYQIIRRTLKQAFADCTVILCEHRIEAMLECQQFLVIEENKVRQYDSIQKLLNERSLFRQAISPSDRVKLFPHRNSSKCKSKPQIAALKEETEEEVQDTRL

EC30	SMILES
+++ (“+++” means <3 uM)	CCOc1cncc(-c2ccc(C(=O)NS(=O)(=O)c3cccc(N)n3)c(N3CC(C)CC3(C)C)n2)n1 (stereo not shown) [Compound 1252, N-[(6-amino-2-pyridyl)sulfonyl]-6-(6-ethoxypyrazin-2-yl)-2-(2,2,4-trimethylpyrrolidin-1-yl)pyridine-3-carboxamide]
+++ (“+++” means <3 uM)	C[C@@H]1CN(c2nc(C(C)(C)C)c(/C=C/c3ccc(C(F)(F)F)cc3)cc2C(=O)NS(=O)(=O)c2cccc(N)n2)C(C)(C)C1 [Compound 1566, N-[(6-amino-2-pyridyl)sulfonyl]-6-tert-butyl-5-[(E)-2-[4-(trifluoromethyl)phenyl]vinyl]-2-[(4S)-2,2,4-trimethylpyrrolidin-1-yl]pyridine-3-carboxamide]
+++ (“+++” means <3 uM)	COc1cccc2c1C(C)(C(=O)NS(=O)(=O)c1cccc(N)n1)N(Cc1c(C)cc(C)cc1C)C2 (stereo not shown) [Compound 1075, N-[(6-amino-2-pyridyl)sulfonyl]-7-methoxy-1-methyl-2-[(2,4,6-trimethylphenyl)methyl]isoindoline-1-carboxamide]
++ (“++” means between 3 uM and 10 uM)	COc1cc(C(C)=O)ccc1Oc1cccc(S(=O)(=O)NC(=O)c2cccnc2N2CC(C)CC2(C)C)n1 (stereo not shown) [Compound 1744, N—[[6-(4-acetyl-2-methoxy-phenoxy)-2-pyridyl]sulfonyl]-2-(2,2,4-trimethylpyrrolidin-1-yl)pyridine-3-carboxamide]
+++ (“+++” means <3 uM)	CCOc1cccc(-c2ccc(C(=O)NS(=O)(=O)c3ccc[nH]c3=O)c(N3C[C@@H](C)CC3(C)C)n2)c1F [Compound 1802, 6-(3-ethoxy-2-fluoro-phenyl)-N-[(2-oxo-1H-pyridin-3-yl)sulfonyl]-2-[(4S)-2,2,4-trimethylpyrrolidin-1-yl]pyridine-3-carboxamide]
++ (“++” means between 3 uM and 10 uM)	CCOC1CCN(c2nc(C(C)(C)C)ccc2C(=O)NS(=O)(=O)c2cccc(N)n2)CC1 [Compound 1200, N-[(6-amino-2-pyridyl)sulfonyl]-6-tert-butyl-2-(4-ethoxy-1-piperidyl)pyridine-3-carboxamide]
+++ (“+++” means <3 uM)	CC(C)c1ccc(-c2ccc(C(=O)NS(=O)(=O)c3cccc(N)n3)c(N3[C@H](C)CC[C@@H]3C)n2)cc1 [Compound 1343, N-[(6-amino-2-pyridyl)sulfonyl]-2-[(2S,5R)-2,5-dimethylpyrrolidin-1-yl]-6-(4-isopropylphenyl)pyridine-3-carboxamide]
++ (“++” means between 3 uM and 10 uM)	C[C@@H]1CC[C@H](C)N1c1nc(-c2ccc(F)cc2)ccc1C(=O)NS(=O)(=O)c1cccc(N)n1 [Compound 1029, N-[(6-amino-2-pyridyl)sulfonyl]-2-[(2S,5R)-2,5-dimethylpyrrolidin-1-yl]-6-(4-fluorophenyl)pyridine-3-carboxamide]
+++ (“+++” means <3 uM)	CCc1ccccc1-c1cnc(Oc2c(C)cc(C)cc2C)c(C(=O)NS(=O)(=O)c2cccc(N)n2)c1 [Compound 945, N-[(6-amino-2-pyridyl)sulfonyl]-5-(2-ethylphenyl)-2-(2,4,6-trimethylphenoxy)pyridine-3-carboxamide]
++ (“++” means between 3 uM and 10 uM)	C[C@@H]1CN(c2nc(Cl)ccc2C(=O)NS(=O)(=O)c2cccc(N)n2)C(C)(C)C1 [Compound 852, N-[(6-amino-2-pyridyl)sulfonyl]-6-chloro-2-[(4S)-2,2,4-trimethylpyrrolidin-1-yl]pyridine-3-carboxamide]
+++ (“+++” means <3 uM)	Cc1cccc(C)c1Cn1nc(C(C)(C)C)cc1C(=O)NS(=O)(=O)c1ccco1 [Compound 1468, 5-tert-butyl-2-[(2,6-dimethylphenyl)methyl]-N-(2-furylsulfonyl)pyrazole-3-carboxamide]

Second part, the compound before the results:

SMILES	EC30
C[C@@H]1CN(c2nc(-c3cccc(CO)c3)ccc2C(=O)NS(=O)(=O)c2cccnc2N)C(C)(C)C1 [Compound 1738, N-[(2-amino-3-pyridyl)sulfonyl]-6-[3-(hydroxymethyl)phenyl]-2-[(4S)-2,2,4-trimethylpyrrolidin-1-yl]pyridine-3-carboxamide]	+++ (“+++” means <3 uM)
CCN(CCOC)c1cccc(S(=O)(=O)NC(=O)c2cccnc2N2CC(C)CC2(C)C)n1 (stereo not shown) [Compound 1870, N—[[6-[ethyl(2-methoxyethyl)amino]-2-pyridyl]sulfonyl]-2-(2,2,4-trimethylpyrrolidin-1-yl)pyridine-3-carboxamide]	++ (“++” means between 3 uM and 10 uM)
CC(C)COc1cc(F)cc(-c2ccc(C(=O)NS(=O)(=O)c3ccn[nH]3)c(NC3CCCC(C(F)(F)F)C3)n2)c1 (stereo not shown) [Compound 1281, 6-(3-fluoro-5-isobutoxy-phenyl)-N-(1H-pyrazol-5-ylsulfonyl)-2-[[3-(trifluoromethyl)cyclohexyl]amino]pyridine-3-carboxamide]	++ (“++” means between 3 uM and 10 uM)
CC(=O)C1CC=C(c2cc(C(=O)NS(=O)(=O)c3cccc(N)n3)c(N3CC(C)CC3(C)C)nc2C(C)(C)C)CC1 (stereo not shown) [Compound 1461, 5-(4-acetylcyclohexen-1-yl)-N-[(6-amino-2-pyridyl)sulfonyl]-6-tert-butyl-2-(2,2,4-trimethylpyrrolidin-1-yl)pyridine-3-carboxamide]	+++ (“+++” means <3 uM)
CC1CN(c2ncccc2C(=O)NS(=O)(=O)c2cccc(N3CCCC4CCCCC43)n2)C(C)(C)C1 (stereo not shown) [Compound 1776, N—[[6-(3,4,4a,5,6,7,8,8a-octahydro-2H-quinolin-1-yl)-2-pyridyl]sulfonyl]-2-(2,2,4-trimethylpyrrolidin-1-yl)pyridine-3-carboxamide]	+++ (“+++” means <3 uM)
C[C@@H]1CN(c2nc(-c3cc(O)cc(F)c3)ccc2C(=O)NS(=O)(=O)c2ccccc2)C(C)(C)C1 [Compound 1538, N-(benzenesulfonyl)-6-(3-fluoro-5-hydroxy-phenyl)-2-[(4S)-2,2,4-trimethylpyrrolidin-1-yl]pyridine-3-carboxamide]	+ (“+” means greater than 10 uM)
CCOc1cc(F)cc(-c2ccc(C(=O)NS(=O)(=O)c3ccc[nH]c3=O)c(N3[C@H](C)CC[C@@H]3C)n2)c1 [Compound 1096, 2-[(2R,5S)-2,5-dimethylpyrrolidin-1-yl]-6-(3-ethoxy-5-fluoro-phenyl)-N-[(2-oxo-1H-pyridin-3-yl)sulfonyl]pyridine-3-carboxamide]	++ (“++” means between 3 uM and 10 uM)
Cc1cn(-c2ccc(C(=O)NS(=O)(=O)c3cccnc3N)c(N3C[C@@H](C)CC3(C)C)n2)nc1OCC(C)C [Compound 1758, N-[(2-amino-3-pyridyl)sulfonyl]-6-(3-isobutoxy-4-methyl-pyrazol-1-yl)-2-[(4S)-2,2,4-trimethylpyrrolidin-1-yl]pyridine-3-carboxamide]	+++ (“+++” means <3 uM)
CC(C)COc1cc(F)cc(-c2ccc(C(=O)NS(=O)(=O)N3CCC[C@@H](N)C3)c(N3C[C@@H](C)CC3(C)C)n2)c1 [Compound 1614, N—[[(3R)-3-amino-1-piperidyl]sulfonyl]-6-(3-fluoro-5-isobutoxy-phenyl)-2-[(4S)-2,2,4-trimethylpyrrolidin-1-yl]pyridine-3-carboxamide]	+++ (“+++” means <3 uM)
Cc1cc(C)c(Oc2cc(-c3cc(F)cc(OCC(C)C)c3)ccc2C(=O)NS(=O)(=O)c2cccc(N)n2)c(C)c1 [Compound 1549, N-[(6-amino-2-pyridyl)sulfonyl]-4-(3-fluoro-5-isobutoxy-phenyl)-2-(2,4,6-trimethylphenoxy)benzamide]	+++ (“+++” means <3 uM)
CC(C)Oc1ccc(-c2ccc(C(=O)NS(=O)(=O)c3cccc(N)n3)c(N3CCC(C(F)(F)F)CC3)n2)cn1 [Compound 1043, N-[(6-amino-2-pyridyl)sulfonyl]-6-(6-isopropoxy-3-pyridyl)-2-[4-(trifluoromethyl)-1-piperidyl]pyridine-3-carboxamide]	+++ (“+++” means <3 uM)
C[C@@H]1CN(c2nc(C3CCCCO3)ccc2C(=O)NS(=O)(=O)c2cccc(N)n2)C(C)(C)C1 (stereo partly drawn) [Compound 1500, N-[(6-amino-2-pyridyl)sulfonyl]-6-tetrahydropyran-2-yl-2-[(4S)-2,2,4-trimethylpyrrolidin-1-yl]pyridine-3-carboxamide]	+++ (“+++” means <3 uM)
CC(C)COc1cc(F)cc(-c2ccc(C(=O)NS(=O)(=O)c3ccn[nH]3)c(N3CC(C)CC3(C)C)n2)c1 (stereo not shown) [Compound 904, 6-(3-fluoro-5-isobutoxy-phenyl)-N-(1H-pyrazol-5-ylsulfonyl)-2-(2,2,4-trimethylpyrrolidin-1-yl)pyridine-3-carboxamide]	+++ (“+++” means <3 uM)
CC(C)COc1cc(F)cc(-c2ccc(C(=O)NS(=O)(=O)c3cccc(N)n3)c(OC3CCC3C3CC3)n2)c1 (stereo not shown) [Compound 1530, N-[(6-amino-2-pyridyl)sulfonyl]-2-(2-cyclopropylcyclobutoxy)-6-(3-fluoro-5-isobutoxy-phenyl)pyridine-3-carboxamide]	+++ (“+++” means <3 uM)
